Source: US12331054B2, “Perk inhibiting imidazolopyrazine compounds” (HiberCell, Inc., priority 2019, dated 2025)

How the values were obtained:
[1] = biological target: Recombinant human EIF2AK3 (PERK) catalytic domain (amino acids 536-1116) (Homo sapiens (Human), UniProt Q9NZJ5); experiment: PERK In Vitro Activity Assay (isolated), TR-FRET kinase assay; settings: isolated PERK enzyme, 1.5 μM ATP, read-out: Biochemical IC50
Description: PERK In Vitro Activity Assay (isolated):
In vitro Inhibition of PERK Enzyme Activity (isolated) Recombinant human EIF2AK2 (PKR) catalytic domain (amino acids 252-551), EIF2AK3 (PERK) catalytic domain (amino acids 536-1116), GFP-eIF2a substrate, and Terbium-labelled phospho-eIF2a antibody is obtained (Invitrogen, Carlsbad, CA).
Express and purify HIS-SUMO-GCN2 catalytic domain (amino acids 584-1019) from E. coli. Perform TR-FRET kinase assays in the absence or presence of inhibitors in a reaction buffer consisting of 50 mM HEPES, pH 7.5, 10 mM MgCb, 1.0 mM EGTA, and 0.01% Brij-35, and 100-200 nM GFP-eIF2a substrate. […] Add test compound, initiate the reaction by addition of enzyme, and incubate at room temperature for 45 minutes. Stop the reaction by addition of EDTA to a final concentration of 10 mM, add Terbium-labelled phospho-eIF2a antibody at a final concentration of 2 nM, and incubate for 90 minutes. Monitor the resulting fluorescence in an EnVison® Multilabel reader (PerkinElmer, Waltham, MA). Determine TR-FRET ratios and the resulting IC50 values using a 4-parameter nonlinear logistic equation as shown: Y=(A+((B−A)/(1+(C/x)AD)))) where, Y=% specific inhibition, A=Bottom of the curve, B=Top of the curve, C=absolute IC50 (concentration causing 50% inhibition), and D=hill slope.

[2] = system: eIF2α in HEK293-EGFP-eIF2α cells; experiment: PERK Cellular Assay (HEK293-EGFP-eIF2α cells, tunicamycin-induced ER stress, TR-FRET); type: cell-based; settings: tunicamycin 2 hours
Description: Stable cell lines were created in HEK293 cells using lentiviral particles harboring an expression vector for GFP-eIF2α. Cells were selected using puromycin and enriched using fluorescence activated cell sorting against GFP. HEK293-EGFP-eIF2α cells were plated at 5000 cells/well in 384-well assay plates and incubated overnight at 37° C., 5% CO2. Inhibitor compounds were added to the wells by Echo acoustic dispensing and incubated for 30 minutes at 37° C., 5% CO2 prior to induction of ER stress by addition of tunicamycin to […] for 2 hours. Cells were lysed and TR-FRET was measured in an EnVision plate reader (PerkinElmer). FRET ratio data was normalized to signal from lysates treated with DMSO vehicle control and plotted as percent inhibition against 10-point; 3-fold dilution series of inhibitors. IC50 values were calculated using 4-parameter logistical fitting in XLFit.

Recombinant human EIF2AK3 (PERK) catalytic domain (amino acids 536-1116), sequence (Q9NZJ5 536-1116): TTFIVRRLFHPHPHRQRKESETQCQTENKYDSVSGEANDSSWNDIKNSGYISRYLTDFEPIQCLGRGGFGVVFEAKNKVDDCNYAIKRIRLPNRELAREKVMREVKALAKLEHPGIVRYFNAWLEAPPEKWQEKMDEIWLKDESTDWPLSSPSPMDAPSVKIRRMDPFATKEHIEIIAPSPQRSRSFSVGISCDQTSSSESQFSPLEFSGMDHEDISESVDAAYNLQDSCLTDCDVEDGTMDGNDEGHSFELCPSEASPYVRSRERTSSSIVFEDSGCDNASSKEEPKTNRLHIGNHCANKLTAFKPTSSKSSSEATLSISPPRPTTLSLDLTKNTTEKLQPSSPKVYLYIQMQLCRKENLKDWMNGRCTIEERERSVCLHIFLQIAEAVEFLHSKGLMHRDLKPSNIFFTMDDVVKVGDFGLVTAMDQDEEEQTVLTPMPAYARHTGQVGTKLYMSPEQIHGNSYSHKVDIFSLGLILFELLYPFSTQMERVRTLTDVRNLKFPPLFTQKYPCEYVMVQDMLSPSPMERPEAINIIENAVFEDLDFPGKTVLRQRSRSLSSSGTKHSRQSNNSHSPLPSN

| IC50 [1] [µM] | Structure (SMILES) | IC50 [2] [µM] | IC50 ([2]; 2 h) [µM] |
| --- | --- | --- | --- |
| 0.051 to 0.1 | [2H]C([2H])([2H])c1nc(-c2ccc(NC(=O)C(O)c3cc(F)cc(F)c3)cc2C)c2c(N)nc(C)cn12 (centres unmarked) [Example 45, N-[4-[8-amino-6-methyl-3-(trideuteriomethyl)imidazo[1,5-a]pyrazin-1-yl]-3-methyl-phenyl]-2-(3,5-difluoro-phenyl)-2-hydroxy-acetamide] | 1 to 2 |  |
| 0.001 to 0.025 | [2H]C([2H])([2H])c1nc(-c2ccc(NC(=O)C(O)c3cc(F)cc(F)c3)cc2C)c2c(N)ncc(C(F)(F)F)n12 (centres unmarked) [Example 46, N-[4-[8-amino-3-(trideuteriomethyl)-5-(trifluoromethyl)imidazo[1,5-a]pyrazin-1-yl]-3-methyl-phenyl]-2-(3,5-difluoro-phenyl)-2-hydroxy-acetamide] | 0.026 to 0.05 |  |
| 0.026 to 0.05 | [2H]C([2H])([2H])c1nc(-c2ccc(NC(=O)C(O)c3cc(F)cc(F)c3)cc2C)c2c(N)ncc(C(F)(F)F)n12 (centres unmarked) [Example 47, N-[4-[8-amino-3-(trideuteriomethyl)-5-(trifluoromethyl)imidazo[1,5-a]pyrazin-1-yl]-3-methyl-phenyl]-2-(3,5-difluoro-phenyl)-2-hydroxy-acetamide] | 0.101 to 0.25 |  |
| 0.001 to 0.025 | [2H]C([2H])([2H])c1nc(-c2ccc(NC(=O)C(O)c3cc(F)cc(F)c3)cc2C)c2c(N)ncc(Cl)n12 (centres unmarked) [Example 48, N-[4-[8-amino-5-chloro-3-(trideuteriomethyl)imidazo[1,5-a]pyrazin-1-yl]-3-methyl-phenyl]-2-(3,5-difluoro-phenyl)-2-hydroxy-acetamide] |  | 0.001 to 0.025 |
| 0.001 to 0.025 | [2H]C([2H])([2H])c1nc(-c2ccc(NC(=O)C(O)c3cc(F)cc(F)c3)cc2C)c2c(N)ncc(C)n12 (centres unmarked) [Example 50, N-[4-[8-amino-5-methyl-3-(trideuteriomethyl)imidazo[1,5-a]pyrazin-1-yl]-3-methyl-phenyl]-2-(3,5-difluoro-phenyl)-2-hydroxy-acetamide] | 0.001 to 0.025 |  |
| 0.001 to 0.025 | [2H]C([2H])([2H])c1nc(-c2ccc(NC(=O)C(O)c3cc(F)cc(F)c3)cc2C)c2c(N)ncc(C)n12 (centres unmarked) [Example 51, N-[4-[8-amino-5-methyl-3-(trideuteriomethyl)imidazo[1,5-a]pyrazin-1-yl]-3-methyl-phenyl]-2-(3,5-difluoro-phenyl)-2-hydroxy-acetamide] | 0.051 to 0.1 |  |
| 0.001 to 0.025 | [2H]C([2H])([2H])c1nc(-c2ccc(NC(=O)C(O)c3cc(F)cc(C(F)(F)F)c3)cc2C)c2c(N)nc(C)cn12 (centres unmarked) [Example 52, N-[4-[8-amino-6-methyl-3-(trideuteriomethyl)imidazo[1,5-a]pyrazin-1-yl]-3-methyl-phenyl]-2-[3-fluoro-5-(trifluoromethyl)phenyl]-2-hydroxy-acetamide] | 0.026 to 0.05 |  |
| 0.101 to 0.25 | [2H]C([2H])([2H])c1nc(-c2ccc(NC(=O)C(O)c3cc(F)cc(C(F)(F)F)c3)cc2C)c2c(N)nc(C)cn12 (centres unmarked) [Example 53, N-[4-[8-amino-6-methyl-3-(trideuteriomethyl)imidazo[1,5-a]pyrazin-1-yl]-3-methyl-phenyl]-2-[3-fluoro-5-(trifluoromethyl)phenyl]-2-hydroxy-acetamide] | 0.501 to 1 |  |
| 0.001 to 0.025 | [2H]C([2H])([2H])c1nc(-c2ccc(NC(=O)C(O)c3cc(F)cc(C(F)(F)F)c3)cc2C)c2c(N)ncc(C)n12 (centres unmarked) [Example 54, N-[4-[8-amino-5-methyl-3-(trideuteriomethyl)imidazo[1,5-a]pyrazin-1-yl]-3-methyl-phenyl]-2-[3-fluoro-5-(trifluoromethyl)phenyl]-2-hydroxy-acetamide] | 0.001 to 0.025 |  |
| 0.001 to 0.025 | [2H]C([2H])([2H])c1nc(-c2ccc(NC(=O)C(O)c3cc(F)cc(C(F)(F)F)c3)cc2C)c2c(N)ncc(C)n12 (centres unmarked) [Example 55, N-[4-[8-amino-5-methyl-3-(trideuteriomethyl)imidazo[1,5-a]pyrazin-1-yl]-3-methyl-phenyl]-2-[3-fluoro-5-(trifluoromethyl)phenyl]-2-hydroxy-acetamide] | 0.101 to 0.25 |  |
| 0.001 to 0.025 | [2H]C([2H])([2H])c1nc(-c2ccc(NC(=O)C(O)c3cc(F)cc(C(F)(F)F)c3)cc2C)c2c(N)ncc(Cl)n12 (centres unmarked) [Example 56, N-[4-[8-amino-5-chloro-3-(trideuteriomethyl)imidazo[1,5-a]pyrazin-1-yl]-3-methyl-phenyl]-2-[3-fluoro-5-(trifluoromethyl)phenyl]-2-hydroxy-acetamide] | 0.001 to 0.025 |  |
| 0.001 to 0.025 | [2H]C([2H])([2H])c1nc(-c2ccc(NC(=O)C(O)c3cc(F)cc(C(F)(F)F)c3)cc2C)c2c(N)ncc(Cl)n12 (centres unmarked) [Example 57, N-[4-[8-amino-5-chloro-3-(trideuteriomethyl)imidazo[1,5-a]pyrazin-1-yl]-3-methyl-phenyl]-2-[3-fluoro-5-(trifluoromethyl)phenyl]-2-hydroxy-acetamide] | 0.026 to 0.05 |  |
| 0.001 to 0.025 | Cc1cc(NC(=O)C(O)c2cc(F)cc(C(F)(F)F)c2)ccc1-c1nc(C)n2c(C)cnc(N)c12 (centres unmarked) [Example 58, N-(4-(8-amino-3,5-dimethylimidazo [1,5-a]pyrazin-1-yl)-3-methylphenyl)-2-(3-fluoro-5-(trifluoromethyl)phenyl)-2-hydroxyacetamide] | 0.026 to 0.05 |  |
| 0.001 to 0.025 | Cc1cc(NC(=O)C(O)c2cc(F)cc(C(F)(F)F)c2)ccc1-c1nc(C)n2c(C)cnc(N)c12 (centres unmarked) [Example 59, N-(4-(8-amino-3,5-dimethylimidazo [1,5-a]pyrazin-1-yl)-3-methylphenyl)-2-(3-fluoro-5-(trifluoromethyl)phenyl)-2-hydroxyacetamide] | 0.101 to 0.25 |  |
| 0.001 to 0.025 | [2H]C([2H])([2H])c1nc(-c2ccc(NC(=O)C(O)c3cc(F)cc(C(F)(F)F)c3)cc2C)c2c(N)ncc(C(F)(F)F)n12 (centres unmarked) [Example 60, N-[4-[8-amino-3-(trideuteriomethyl)-5-(trifluoromethyl)imidazo[1,5-a]pyrazin-1-yl]-3-methyl-phenyl]-2-[3-fluoro-5-(trifluoromethyl)phenyl]-2-hydroxy-acetamide] | 0.026 to 0.05 |  |
| 0.051 to 0.1 | [2H]C([2H])([2H])c1nc(-c2ccc(NC(=O)C(O)c3cc(F)cc(C(F)(F)F)c3)cc2C)c2c(N)ncc(C(F)(F)F)n12 (centres unmarked) [Example 61, N-[4-[8-amino-3-(trideuteriomethyl)-5-(trifluoromethyl)imidazo[1,5-a]pyrazin-1-yl]-3-methyl-phenyl]-2-[3-fluoro-5-(trifluoromethyl)phenyl]-2-hydroxy-acetamide] | 0.251 to 0.5 |  |
| 0.001 to 0.025 | Cc1cc(F)cc(C(O)C(=O)Nc2ccc(-c3nc(C)n4c(C)cnc(N)c34)c(C)c2)c1 (centres unmarked) [Example 62, N-(4-(8-amino-3,5-dimethylimidazo [1,5-a]pyrazin-1-yl)-3-methyl-phenyl)-2-(3-fluoro-5-methylphenyl)-2-hydroxyacetamide] | 0.001 to 0.025 |  |
| 0.001 to 0.025 | Cc1cc(F)cc(C(O)C(=O)Nc2ccc(-c3nc(C)n4c(C)cnc(N)c34)c(C)c2)c1 (centres unmarked) [Example 63, N-(4-(8-amino-3,5-dimethylimidazo [1,5-a]pyrazin-1-yl)-3-methyl-phenyl)-2-(3-fluoro-5-methylphenyl)-2-hydroxyacetamide] | 0.051 to 0.1 |  |
| 0.051 to 0.1 | Cc1cc(NC(=O)C(O)c2cccc(F)c2)c(F)cc1-c1nc(C)n2c(C)cnc(N)c12 (centres unmarked) [Example 64, N-(4-(8-amino-3,5-dimethylimidazo [1,5-a]pyrazin-1-yl)-2-fluoro-5-methylphenyl)-2-(3-fluorophenyl)-2-hydroxy-acetamide] | 0.501 to 1 |  |
| 0.001 to 0.025 | Cc1cc(NC(=O)C(O)c2cccc(F)c2)c(F)cc1-c1nc(C)n2c(C)cnc(N)c12 (centres unmarked) [Example 65, N-(4-(8-amino-3,5-dimethylimidazo [1,5-a]pyrazin-1-yl)-2-fluoro-5-methylphenyl)-2-(3-fluorophenyl)-2-hydroxy-acetamide] | 0.001 to 0.025 |  |
| 0.001 to 0.025 | CCc1cc(NC(=O)C(O)c2cccc(F)c2)ccc1-c1nc(C)n2c(C)cnc(N)c12 (centres unmarked) [Example 66, N-(4-(8-amino-3,5-dimethylimidazo [1,5-a]pyrazin-1-yl)-3-ethylphenyl)-2-(3-fluorophenyl)-2-hydroxy-acetamide] | 0.026 to 0.05 |  |
| 0.001 to 0.025 | CCc1cc(NC(=O)C(O)c2cccc(F)c2)ccc1-c1nc(C)n2c(C)cnc(N)c12 (centres unmarked) [Example 67, N-(4-(8-amino-3,5-dimethylimidazo [1,5-a]pyrazin-1-yl)-3-ethylphenyl)-2-(3-fluorophenyl)-2-hydroxy-acetamide] | 0.101 to 0.25 |  |
